“And” between values parts separate entries of the source, which are not always exact repeats. Equal values may be shown once.
Experiments:
[1] = tested on: IL-1β cytokine output from THP-1s; assay: THP-1 AlphaLISA IL-1β cytokine assay; assay type: cell-based; conditions: Homo sapiens, LPS then nigericin, Table 1
Description: (§1) The cytokine inhibition profiles of compounds of formula (I) were determined in a differentiated THP-1 cell assay. All assays were performed in RPMI-1640 growth medium (Gibco), supplemented with 10% fetal bovine serum (FBS; Gibco), 1% penicillin-streptomycin and 1% sodium pyruvate unless specified otherwise. The IL-1β and IL-6 cytokine inhibition assays were each run in a background of differentiated THP-1 cells as described below. All reagents described were from Sigma-Aldrich unless specified otherwise. Compounds were prepared as 10 mM DMSO stocks.
(§2) THP-1 cells were expanded as a suspension up to 80% confluence in appropriate growth medium. Cells were harvested, suspended, and treated with an appropriate concentration of phorbol 12-myristate 13-acetate (PMA) over a 72 hr period (37° C./5% CO2).
(§3) Following 72 hrs of THP-1 cell incubation, cellular medium was removed and replaced with fresh growth media containing 1% of FBS. Working concentrations of compounds were prepared separately in 10% FBS treated growth medium and pre-incubated with the cells for 30 minutes (37° C./5% CO2). Following the 30 minute compound pre-incubation, THP-1s were treated with an appropriate concentration of LPS and the THP-1s were subsequently incubated for a 24 hr period (37° C./5% CO2). An appropriate final concentration of Nigericin was then dispensed into the THP-1 plates and incubated for 1 hour (37° C./5% CO2) before THP-1 supernatants were harvested and collected in separate polypropylene 96-well holding plates.
(§4) Reagents from each of the IL-1β and IL-6 commercial kits (Perkin Elmer) were prepared and run according to the manufacturer's instructions. Subsequently, fluorescence signal detection in a microplate reader was measured (EnVision® Multilabel Reader, Perkin Elmer).
(§5) Percentage inhibition was calculated per cytokine by normalising the sample data to the high and low controls used within each plate (+/− LPS respectively). Percentage inhibition was then plotted against compound concentration and the 50% inhibitory concentration (IC50) was determined from the resultant concentration-response curve.

[2] = tested on: IL-6 cytokine output from THP-1s; assay: THP-1 AlphaLISA IL-6 cytokine assay; assay type: cell-based; conditions: Homo sapiens, LPS then nigericin, Table 1
Description: as §1, §2, §3, §4, §5

[3] = tested on: NRF2 (nuclear factor erythroid 2-related factor 2); assay: NRF2 +/-GSH activation assay (DiscoverX PathHunter NRF2 translocation kit, U2OS cells); assay type: cell-based; conditions: for Emax (%) +GSH / Emax (%) −GSH: normalised to dimethyl fumarate high control
[4] = Hepatocyte stability assay, human; assay type: in vitro ADME; conditions: human, cryopreserved hepatocytes, 10 μM compound, read-out: T½
From the text: (§6) Defrosted cryo-preserved hepatocytes (viability >70%) were used to determine the metabolic stability of a compound via calculation of intrinsic clearance (Clint; a measure of the removal of a compound from the liver in the absence of blood flow and cell binding). Clearance data are particularly important for in vitro work as they can be used in combination with in vivo data to predict the half-life and oral bioavailability of a drug.
(§7) The metabolic stability in hepatocytes assay involves a time-dependent reaction using both positive and negative controls. The cells were pre-incubated at 37° C. and spiked with test compound (and positive control); samples were taken at pre-determined time intervals were analysed to monitor the change in concentration of the initial drug compound over 60 minutes. A buffer incubation reaction (with no hepatocytes present) acted as a negative control and two cocktail solutions, containing compounds with known high and low clearance values (verapamil/7-hydroxycoumarin and propranolol/diltiazem), acted as positive controls. • 1. The assay was run with a cell concentration of 0.5×10^6 cells/mL in Leibovitz buffer. • 2. All compounds and controls were run in duplicate. • 3. Compound concentration was 10 μM. • 4. All compounds and controls were incubated with both cells and buffer to show turnover was due to hepatic metabolism. • 5. All wells on the incubation plate had 326.7 μL of either cells or buffer added. • 6. Prior to assay, cell and buffer-only incubation plates were preincubated for 10 mins at 37° C. • 7. The assay was initiated by adding compounds, 3.3 μL of 1 mM in 10% DMSO-90% Buffer; final DMSO concentration was 0.1%. • 8. Samples were taken at regular timepoints (0, 5, 10, 20, 40, 60 min) until 60 mins. • 9. Sample volume was 40 μL and was added to 160 μL of crash solvent (acetonitrile with internal standard) and stored on ice. • 10. At the end of the assay, the crash plates were centrifuged at 3500 rpm for 20 mins at 4° C. • 11. 80 μL of clear supernatant was removed and mixed with 80 μL of deionised water before being analysed by LC-MS/MS.
(§8) Raw LC-MS/MS data was exported to, and analysed in, Microsoft Excel for determination of intrinsic clearance. The percentage remaining of a compound was monitored using the peak area of the initial concentration as 100%. Intrinsic clearance and half-life values were calculated using a graph of the natural log of percentage remaining versus the time of reaction in minutes. Half-life (min) and intrinsic clearance (Clint in μL min^−1 10^−6 cells) values were calculated using the gradient of the graph (the elimination rate constant, k) and Equations 1 and 2.

human hepatocytes = assay: Hepatocyte stability assay, human; assay type: in vitro ADME; conditions: 10 μM compound
From the text: as §6, §7, §8

[5] = Hepatocyte stability assay, mouse; assay type: in vitro ADME; conditions: mouse, cryopreserved hepatocytes, 10 μM compound, read-out: T½
From the text: as §6, §7, §8

mouse hepatocytes = assay: Hepatocyte stability assay, mouse; assay type: in vitro ADME; conditions: 10 μM compound
From the text: as §6, §7, §8

[6] = THP-1, differentiated THP-1 cells

| SMILES | IC50 [1, 6] [µM] | IC50 [2, 6] [µM] | EC50 ([3]; +GSH) | Emax (%) +GSH ([3]; +GSH) | EC50 ([3]; −GSH) | Emax (%) −GSH ([3]; −GSH) | half-life at 10 μM [4] [min] | Clint (μL min^−1 10^−6 cells) (human hepatocytes) | half-life at 10 μM [5] [min] | Clint (μL min^−1 10^−6 cells) (mouse hepatocytes) | IC50 ([1]; differentiated THP-1 cells) [µM] | IC50 ([2]; differentiated THP-1 cells) [µM] |
| --- | --- | --- | --- | --- | --- | --- | --- | --- | --- | --- | --- | --- |
| C=C(CC(=O)OC1(C)Cc2cc(Cl)c(Cl)cc2C1)C(=O)OCC(=O)O [Example 21, 2-((4-((5,6-dichloro-2-methyl-2,3-dihydro-1H-inden-2-yl)oxy)-2-methylene-4-oxobutanoyl)oxy)acetic acid] | 7.9 | 3.2 | 4 µM | 55% | 5.6 µM | 151% | 35 | 37 | 3 | 483 | – | – |
| C=C(CC(=O)OC1CCc2cc(C(F)(F)F)ccc21)C(=O)OCC(=O)O (stereo not shown) [Example 17, 2-((2-methylene-4-oxo-4-((5-(trifluoromethyl)-2,3-dihydro-1H-inden-1-yl)oxy)butanoyl)oxy)acetic acid] | 2.8 | – | 35.4 µM | 184% | 29.2 µM | 305% | 227 | 6 | 21 | 72 | – | – |
| C=C(CC(=O)OC1CCc2cc(C(F)(F)F)ccc21)C(=O)OCC(=O)O (single isomer, unassigned; enantiomer 1) [Example 27, 2-((2-methylene-4-oxo-4-((5-(trifluoromethyl)-2,3-dihydro-1H-inden-1-yl)oxy)butanoyl)oxy)acetic acid (Enantiomer 1)] | 11.9 | 8.6 | 35.1 µM and 37.5 µM | 139% and 136% | 12.2 µM and 22.2 µM | 157% and 201% | 169 | 9 | 16 | 97 | – | – |
| C=C(CC(=O)OC1CCc2c(Cl)cc(Cl)cc21)C(=O)O[C@H](CC(=O)O)C(F)(F)F (single isomer, unassigned; diastereomer a) [Example 22] | 1.7 | 1.2 | – | – | – | – | 7 | 252 | < 3 | >460 | – | – |
| C=C(CC(=O)OC1CCc2c(Cl)cc(Cl)cc21)C(=O)O[C@@H](CC(=O)O)C(F)(F)F (single isomer, unassigned; diastereomer b) [Example 23] | 1.2 | 1.2 | – | – | – | – | 9 | 190 | < 3 | >460 | – | – |
| C=C(CC(=O)OC1Cc2cc(Cl)c(Cl)cc2C1)C(=O)OCC(=O)O [Example 4, 2-((4-((5,6-dichloro-2,3-dihydro-1H-inden-2-yl)oxy)-2-methylene-4-oxobutanoyl)oxy)acetic acid] | 12 | 4.6 | 16.5 µM | 182% | 7.5 µM | 196% | 119 | 13 | 16 | 83 | – | – |
| C=C(CC(=O)OC1CCc2c(Cl)cc(Cl)cc21)C(=O)OCCC(=O)O (single isomer, unassigned; enantiomer 1) [Example 14, 3-((4-((4,6-dichloro-2,3-dihydro-1H-inden-1-yl)oxy)-2-methylene-4-oxobutanoyl)oxy)propanoic acid (Enantiomer 1)] | 2.8 | – | 36.7 µM | 118% | 27.8 µM | 193% | 75 | 19 | 7 | 224 | – | – |
| C=C(CC(=O)OC1(C)Cc2ccc(Cl)cc2C1)C(=O)OCC(=O)O (stereo not shown) [Example 7, 2-((4-((5-chloro-2-methyl-2,3-dihydro-1H-inden-2-yl)oxy)-2-methylene-4-oxobutanoyl)oxy)acetic acid] | – | – | 22.3 µM | 135% | 14.5 µM | 155% | 86 | 17 | 10 | 142 | > 31.6 | 8.2 |
| C=C(CC(=O)OC1Cc2ccc(Cl)cc2C1)C(=O)OCC(=O)O (stereo not shown) [Example 1, 2-((4-((5-chloro-2,3-dihydro-1H-inden-2-yl)oxy)-2-methylene-4-oxobutanoyl)oxy)acetic acid] | 29.2 | 10.2 | 34.6 µM | 125% | 25.6 µM | 139% | 449 | 3 | 41 | 46 | – | – |
| C=C(CC(=O)OC1CCCc2cc(C(F)(F)F)ccc21)C(=O)OCC(=O)O (single isomer, unassigned; enantiomer 1) [Example 31, 2-((2-methylene-4-oxo-4-((6-(trifluoromethyl)-1,2,3,4-tetrahydronaphthalen-1-yl)oxy)butanoyl)oxy)acetic acid (Enantiomer 1)] | 9.6 | 9.6 | 22.9 µM | 137% | 11.3 µM | 141% | 61 | 29 | 6 | 272 | – | – |
| C=C(CC(=O)OC1C(C)(C)c2cc(F)c(F)cc2C1(C)C)C(=O)OCC(=O)O [Example 26, 2-((4-((5,6-difluoro-1,1,3,3-tetramethyl-2,3-dihydro-1H-inden-2-yl)oxy)-2-methylene-4-oxobutanoyl)oxy)acetic acid] | 7.9 | 3 | 7.7 µM | 145% | 4.1 µM | 216% | 166 | 9 | < 3 | >460 | – | – |
